In general, TGI refers to the concentration giving total growth inhibition.

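All cell lines were grown in 96-well plates and treated with compound for 48 hours. TGI: total growth inhibition.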

One test has as its system LOX IMVI melanoma. Put plainly: DTP human tumour cell line panel, 48 h.
Regarding `Nc1ccccc1CCN1CCN(CCCc2ccccc2)CC1`, the TGI was above 100 µM.
`O=c1oc2ccccc2c(Nc2ccc3c(c2)Sc2ccccc2O3)c1[N+](=O)[O-]`: the TGI was above 100 µM.

Another test concerns COLO 205 colon. The test is described as follows: DTP human tumour cell line panel, 48 h.
`O=C(O)CO[C@@]12C#C/C=C\C#C[C@@H]3N(C(=O)Oc4ccccc4)c4ccccc4[C@]14O[C@@]34CCC2` displayed a TGI of 46.8 µM.
For `N[C@@H]1CCN(c2c(F)cc3c(=O)c(C(=O)O)cn4c3c2Oc2c-4ccc3c2ccc2ccccc23)C1`, the TGI was above 100 µM.
For the compound `COc1c(=O)cc2cc[nH]c3cc[nH]c1c23`, the concentration for total growth inhibition (TGI) is above 100 µM.
Still for that read-out and setting: the value for `CCCCC1(NN=C2CCCCC2)C(=O)N(c2ccccc2)N(c2ccccc2)C1=O` was above 100 µM; that for `Cc1nc2ccc(Br)cc2c(=O)n1-c1nnc(C(C)(C)C)s1` was above 10 µM; that for `Cc1ccc(C2(O)CSC(=NC34CC5CC(CC(C5)C3)C4)N2C(P(=O)(O)O)P(=O)(O)O)cc1` (stereo unspecified) was above 100 µM.
`CCOC(=O)c1sc(=S)n(-c2ccc(Cl)cc2)c1-n1cc(-c2ccccc2)c(C#N)c1N` had a TGI above 100 µM.
As for `COC1(OC)N=C(N)C2(C#N)C(c3ccccc3)NC3=C(CCC3)C12C#N` (stereo unspecified), the TGI was above 100 µM.
Take `COC(=O)[C@@H]1C[C@H]2OC(=O)CC[C@]2(C)O[C@H]1[C@H]1O[C@@](C)(O)CCC[C@H]1C`: the TGI is above 50 µM.
On the same count and under the same terms, as for `CN(/N=C/c1ccc(C(=O)O)cc1)C1=NCCCCN1`, the figure is above 100 µM; as for `Cc1c(N2C(=O)C(Cl)C2/C=C/c2ccccc2)c(=O)n(-c2ccccc2)n1C` (stereo unspecified), 28 µM; as for `CC[C@@H](C)[C@H](NC(=O)[C@H](Cc1ccccc1)NCC(F)(F)F)C(=O)OC(C)(C)C`, above 100 µM.
`Nc1ccccc1CCN1CCN(CCCc2ccccc2)CC1` had a TGI of 55 µM.
Take `O=c1oc2ccccc2c(Nc2ccc3c(c2)Sc2ccccc2O3)c1[N+](=O)[O-]`: the concentration for total growth inhibition (TGI) is 32.1 µM.

The next test relates to MALME-3M melanoma. The test is described as follows: DTP human tumour cell line panel, 48 h.
In the case of `COc1c(=O)cc2cc[nH]c3cc[nH]c1c23`, the TGI is above 100 µM.
`Cc1ccc(C2(O)CSC(=NC34CC5CC(CC(C5)C3)C4)N2C(P(=O)(O)O)P(=O)(O)O)cc1` (stereo unspecified): the TGI is above 100 µM.
Turning to `COC1(OC)N=C(N)C2(C#N)C(c3ccccc3)NC3=C(CCC3)C12C#N` (stereo unspecified), the TGI was above 100 µM.
In the case of `COC(=O)[C@@H]1C[C@H]2OC(=O)CC[C@]2(C)O[C@H]1[C@H]1O[C@@](C)(O)CCC[C@H]1C`, the TGI is above 50 µM.
`CN(/N=C/c1ccc(C(=O)O)cc1)C1=NCCCCN1` gave a TGI above 100 µM.
In the case of `Cc1c(N2C(=O)C(Cl)C2/C=C/c2ccccc2)c(=O)n(-c2ccccc2)n1C` (stereo unspecified), the TGI was 25 µM.
Regarding `CC[C@@H](C)[C@H](NC(=O)[C@H](Cc1ccccc1)NCC(F)(F)F)C(=O)OC(C)(C)C`, the concentration for total growth inhibition (TGI) was above 100 µM.
In the case of `Nc1ccccc1CCN1CCN(CCCc2ccccc2)CC1`, the TGI was determined as 31.6 µM. This counts as double-digit micromolar.
The same measure, in the same setting: as for `O=c1oc2ccccc2c(Nc2ccc3c(c2)Sc2ccccc2O3)c1[N+](=O)[O-]`, the figure is 65.7 µM.

Another test deals with SK-MEL-5 melanoma. The test is described as follows: DTP human tumour cell line panel, 48 h.
`O=C(O)CO[C@@]12C#C/C=C\C#C[C@@H]3N(C(=O)Oc4ccccc4)c4ccccc4[C@]14O[C@@]34CCC2`: the TGI is above 100 µM.
The same measure, in the same setting: the value for `N[C@@H]1CCN(c2c(F)cc3c(=O)c(C(=O)O)cn4c3c2Oc2c-4ccc3c2ccc2ccccc23)C1` was above 100 µM; that for `COc1c(=O)cc2cc[nH]c3cc[nH]c1c23` was above 100 µM.
In the case of `CCCCC1(NN=C2CCCCC2)C(=O)N(c2ccccc2)N(c2ccccc2)C1=O`, the TGI is above 100 µM.
On the same count and under the same terms, the value for `Cc1nc2ccc(Br)cc2c(=O)n1-c1nnc(C(C)(C)C)s1` was above 10 µM; that for `CCOC(=O)c1sc(=S)n(-c2ccc(Cl)cc2)c1-n1cc(-c2ccccc2)c(C#N)c1N` was 84.5 µM.
`COC1(OC)N=C(N)C2(C#N)C(c3ccccc3)NC3=C(CCC3)C12C#N` (stereo unspecified): the TGI was above 100 µM.
Compound `COC(=O)[C@@H]1C[C@H]2OC(=O)CC[C@]2(C)O[C@H]1[C@H]1O[C@@](C)(O)CCC[C@H]1C` showed a TGI above 50 µM.
`CN(/N=C/c1ccc(C(=O)O)cc1)C1=NCCCCN1` yielded a TGI above 100 µM.
`Cc1c(N2C(=O)C(Cl)C2/C=C/c2ccccc2)c(=O)n(-c2ccccc2)n1C` (stereo unspecified): the concentration for total growth inhibition (TGI) is 30 µM. That is a double-digit micromolar value.
Take `CC[C@@H](C)[C@H](NC(=O)[C@H](Cc1ccccc1)NCC(F)(F)F)C(=O)OC(C)(C)C`: the TGI is above 100 µM.
The same measure, in the same setting: as for `Nc1ccccc1CCN1CCN(CCCc2ccccc2)CC1`, the figure is 32.6 µM; as for `O=c1oc2ccccc2c(Nc2ccc3c(c2)Sc2ccccc2O3)c1[N+](=O)[O-]`, 32.4 µM.

The test system of a further test is SF-268 CNS. Put plainly: DTP human tumour cell line panel, 48 h.
`O=C(O)CO[C@@]12C#C/C=C\C#C[C@@H]3N(C(=O)Oc4ccccc4)c4ccccc4[C@]14O[C@@]34CCC2` gave a TGI of 85.2 µM.
`N[C@@H]1CCN(c2c(F)cc3c(=O)c(C(=O)O)cn4c3c2Oc2c-4ccc3c2ccc2ccccc23)C1`: the TGI is above 100 µM.
Take `CCCCC1(NN=C2CCCCC2)C(=O)N(c2ccccc2)N(c2ccccc2)C1=O`: the TGI was above 100 µM.
Compound `Cc1nc2ccc(Br)cc2c(=O)n1-c1nnc(C(C)(C)C)s1` came in with a TGI above 10 µM.
As for `Cc1ccc(C2(O)CSC(=NC34CC5CC(CC(C5)C3)C4)N2C(P(=O)(O)O)P(=O)(O)O)cc1` (stereo unspecified), the TGI was above 100 µM.
`CCOC(=O)c1sc(=S)n(-c2ccc(Cl)cc2)c1-n1cc(-c2ccccc2)c(C#N)c1N` had a TGI of 8.6 µM.
Compound `COC1(OC)N=C(N)C2(C#N)C(c3ccccc3)NC3=C(CCC3)C12C#N` (stereo unspecified) gave a TGI above 100 µM.
Take `COC(=O)[C@@H]1C[C@H]2OC(=O)CC[C@]2(C)O[C@H]1[C@H]1O[C@@](C)(O)CCC[C@H]1C`: the TGI was above 50 µM.
In turn, `CN(/N=C/c1ccc(C(=O)O)cc1)C1=NCCCCN1` showed a TGI above 100 µM.
The compound `Cc1c(N2C(=O)C(Cl)C2/C=C/c2ccccc2)c(=O)n(-c2ccccc2)n1C` (stereo unspecified) had a TGI above 100 µM.
The compound `CC[C@@H](C)[C@H](NC(=O)[C@H](Cc1ccccc1)NCC(F)(F)F)C(=O)OC(C)(C)C` returned a TGI above 100 µM.
As to `Nc1ccccc1CCN1CCN(CCCc2ccccc2)CC1`, the TGI is above 100 µM.
For the compound `O=c1oc2ccccc2c(Nc2ccc3c(c2)Sc2ccccc2O3)c1[N+](=O)[O-]`, the TGI was above 100 µM.

These data come from PubChem BioAssay (NCI).
